Usually IC50 stands for the concentration needed to halve the response being measured. Read a low IC50 as higher potency.

Data on one compound can be found in patent publication US7582652B2, “Kinase inhibitors” (Eli Lilly and Company, priority 2004, dated 2009).

In assay [1] the test system is TNF-α synthesis in synovial lavage fluid. Kind of assay: Effect on intra-articular LPS induced TNF-α. Format: in vivo, female Lewis rats. The procedure:
Effect on Intra-articular LPS Induced TNF-α
Intra-articular injection of LPS into rat ankles induces the synthesis of TNF-α, which can be measured in synovial lavage fluid. High levels of TNF-α are detectable within 2 hours. Since the joint is the site where arthritis develops, this model can rapidly determine whether an orally administered compound has an effect on an inflammatory response in the synovium.
Six female Lewis rats (150-200 g) are place in each treatment group. The animals are given vehicle (1% NaCarboxymethylcellulose-0.25% Tween 80) or test compound (1 mg/kg, 3 mg/kg, 10 mg/kg, and 30 mg/kg) orally. One hour later, 10 μl LPS (10 μg) is administered intra-articularly into the right ankle of each rat, while the left ankle receives 10 μL of saline. After two hours, each ankle is lavaged with 100 μL of saline. The lavage is collected and stored at −80° C. • Group#1: Vehicle (1% NaCMC-0.25% Tween 80, 1 mL, PO) • Group#2: Test compound (1 mg/kg, 1 mL, PO) • Group#3: Test compound (3 mg/kg, 1 mL, PO) • Group#4: Test compound (10 mg/kg, 1 mL, PO) • Group#5: Test compound (30 mg/kg, 1 mL, PO)
TNF-α is measured with a commercially available ELISA kit (R&D, RTA00).

The subject of assay [2] is TNF-α production in mouse peritoneal macrophages. Kind of assay: Inhibition of TNF-α in vitro (mouse peritoneal macrophages, LPS/interferon-γ, Luminex). Format: cell-based. The following applies: suppression of TNF-α; macrophages treated with 50 ng/mL LPS and 10 U/mL interferon-γ for 18 h. The procedure:
Mouse Peritoneal Macrophages
1 mL thioglycolate broth (5.0 g yeast extract, 15.0 g casitone or trypticase, 5.0 g dextrose, 2.5 g sodium chloride, 0.75 g L-cystine, 0.5 g sodium thioglycolate, 1.0 mg resazurin, and 0.75 g agar in 1.0 L distilled water) is injected into the peritoneal cavity of Balb/C female mice. At day 4 or 5 post-injection the mice are sacrificed and then injected i.p. with 4 mL RPMI-1640 medium (BioWhittaker) and the peritoneal macrophages are withdrawn by syringe.
Mouse peritoneal microphages are counted with a hemocytometer and adjusted to 5×10^5 cells/well in 96-well plates in RPMI-1640 medium with 10% fetal bovine serum. 200 μL/well is plated in 96-well plates and the cells allowed to settle and adhere to the bottom of the well for at least 3 h. The test compound or standard p38 kinase inhibitor is pre-treated using a series of 8 concentrations for 1 h at 37° C. (20 μL/well). The cells are treated with a mixture of 50 ng/mL lipopolysaccharide (LPS) and 10 U/mL interferon-γ for 18 h at 37° C. (20 μL/well). The conditioned media is harvested and assayed for TNF-α production using the Luminex procedure.
TNF-α/Luminex Detection Assay (Bio-Rad Bio-Plex Kit—Catalog #171-G12221)
The lyophilized premixed TNF-α standard (1 standard tube/two 96-well plates) is reconstituted with 50 μL sterile water (500,000 pg/mL). The samples are vortexed for 5 seconds, incubated on ice for 30 min, and vortexed for 5 seconds before use. A set of twelve 1.5 mL tubes are labeled with #1-thru #12 and then the amounts of cell media shown below added to the appropriate tubes (standard concentrations are as follows: 50,000; 25,000; 12,500; 6,250; 3,125; 1,562.5; 781.3; 390.6; 195.3; 97.7; 48.8; and 24.4 pg/mL). The premixed anti-cytokine conjugated beads are vortexed (25×) vigorously for 30 seconds. The anti-cytokine conjugated beads are diluted to a 1× concentration using 1× Bio-Plex Assay Buffer. For every plate, 240 μL of the pre-mixed beads is added to 5760 μL of Bio-Plex Assay Buffer. A Millipore 96-well filter plate is blocked with 100 μL/well of blocking buffer. The blocking buffer is filtered through using a Millipore filtration system and then toweled dry. 2 washes are performed on the filter plate with 100 μL/well of Bio-Plex Assay Buffer and toweled dry. The 1× anti-cytokine conjugated beads are vortexed for 15 seconds and added 50 μL to each well. This is filtered through and toweled dry. 2 washes are performed on plates with 100 μl/well of Bio-Plex Wash Buffer. Again, it is filtered through and toweled dry. 50 μL of sample or standard is added to each sample well. This is incubated for 60 seconds at RT on a shaker protected from light at setting 6 and then for 30 min at setting 3 and then placed in the refrigerator overnight. 3 washes are performed with Bio-Plex Wash Buffer. Filter through and toweled dry. The cytokine detection antibody is prepared (˜10 min prior to use) for every plate and 60 μL of the premixed cytokine detection antibody stock is added to 5940 μL of Bio-Plex Detection Antibody Diluent. 50 μL of cytokine detection antibody is added and incubated for 60 seconds at RT on a shaker protected from light at setting 6 and then for 30 min at setting 3.3 washes are performed with the Bio-Plex Wash Buffer. This is filtered through and toweled dry. Strept-PE (˜10 minutes prior to use) is prepared for every plate and 60 μL to 5940 μL of Bio-Plex Assay Buffer added. 50 μL of Streptavidin-PE is added to each well and incubated for 60 seconds at RT on a shaker protected from light at setting 6 and then for 10 min at setting 3. 3 washes are performed with Bio-Plex Wash-Buffer. This is filtered through. The beads are re-suspended in 100 μL/well of Bio-Plex Assay Buffer. Standards and samples are read on a Luminex machine. […]

The subject of assay [3] is collagen induced arthritis (ankle diameter). Put plainly: Rat collagen induced arthritis efficacy model. The class given is in vivo, female Lewis rats. The following applies: PO bid x 14 days, AUC of composite inflammation scores. How it is done:
Rat Collagen Induced Arthritis Efficacy Model
Female Lewis rats (≅190 g, Charles River Labs) are immunized with Bovine type II collagen (2 mg/mL) emulsified with an equal volume of adjuvant (aluminum hydroxide). […]. The rats are immunized with approximately […] of the emulsion intradermally on the back near the base of the tail. All animals are re-immunized 7 days later according to the same protocol. The rats begin to develop arthritis (characterized by swelling and redness of one or both ankles) from 12 to 14 days after the first immunization. The rats are equally distributed into five treatment groups at the first signs of arthritis and treatment is initiated with each rat dosed bid for 14 days.
Ankle diameter is measured with calipers 5 days a week and recorded. Data is expressed as the area under the curve (AUC) generated from the composite inflammation scores and statistical analysis performed.

The structures appear in SMILES notation.

Turning to `CC(C)(C)Cn1c(N)nc2ccc(-c3nc(C(C)(C)C)[nH]c3-c3ccc(F)cc3)nc21.CS(=O)(=O)O.CS(=O)(=O)O` [EXAMPLE 104, Crystalline 5-[2-tert-Butyl-5-(4-fluoro-phenyl)-1H-imidazol-4-yl]-3-(2,2-dimethyl-propyl)-3H-imidazo[4,5-b]pyridin-2-ylamine dimethanesulfonate], in assay [1] (oral 1, 3, 10, 30 mg/kg), the “inhibition of TNF-α synthesis (in words)” value is listed as “dose-dependent inhibition”. The “TMED50 (inhibition of TNF-α synthesis)” value in assay [1] (oral, LPS intra-articular 1 h later, ankle lavage after 2 h) amounted to 0.54 mg/kg. This compound yielded an IC50 in assay [2] of 6.3 nM. In addition, the TMED50 in assay [3] is on record as 1.5 mg/kg (b.i.d.).
